# Structures can show the parent of a compound that is named as a salt.
# Legend:
# dog = settings: Chronic toxicity; beagle; Oral; Feed; dose end: 12 month; group: systemic; systemic / in life observation / body weight / body weight + systemic / in life observation / clinical signs / inappetence + systemic / in …
# mouse [1] = settings: Subchronic oral toxicity in rodents, b6c3f1, Feed, dose end: 13 week, group: systemic, systemic / in life observation / body weight / body weight
# mouse [2] = settings: Prenatal developmental toxicity study, cd1, Oral, Gavage/Intubation, dose end: 15 GD
# rat [3] = settings: Prenatal developmental toxicity study, other, Oral, Gavage/Intubation, dose end: 15 GD
# rat [4] = settings: Subchronic oral toxicity in rodents, fischer, Feed, dose end: 13 week, group: systemic, systemic / pathology microscopic / liver / vacuolization
# rat [5] = settings: Carcinogenicity; fischer; Oral; Feed; dose end: 103 week; group: systemic; systemic / pathology microscopic / pituitary gland / adenoma + systemic / pathology microscopic / pituitary gland / adenoma/carcinoma …
# mouse [6] = settings: Combined chronic toxicity/carcinogenicity; b6c3f1; Oral; Feed; dose end: 103 week; group: systemic; systemic / in life observation / body weight / body weight
# rat [7] = settings: Combined chronic toxicity/carcinogenicity, fischer, Oral, Feed, dose end: 103 week, group: systemic
# mouse [8] = settings: Carcinogenicity; b6c3f1; Oral; Feed; dose end: 103 week; group: systemic; systemic / in life observation / body weight / body weight
# rat [9] = settings: Prenatal developmental toxicity study; other; Inhalation; Nose-Only; dose end: 16 GD; group: maternal; systemic / in life observation / body weight / body weight gain + systemic / in life observation / food consumption / food consumption
# rat [10] = settings: Combined chronic toxicity/carcinogenicity; sprague dawley; Oral; Feed; dose end: 104 week; group: systemic; systemic / pathology microscopic / lung / foam cell aggregation + systemic / hematology / erythrocyte (rbc) count differential / erythrocyte…
# rat [11] = settings: Multigenerational reproductive toxicity study, sprague dawley, Oral, Feed, dose end: 2 generation
# rabbit = settings: Prenatal developmental toxicity study, new zealand white, Oral, Gavage/Intubation, dose end: 18 GD, group: maternal
# mouse [12] = settings: Subchronic oral toxicity in rodents, cd1, Feed, dose end: 13 week, group: systemic, systemic / clinical chemistry / alkaline phosphatase (alp/alk) / alkaline phosphatase (alp/alk) + systemic / pathology microscopic / liver…
# mouse [13] = settings: Subchronic oral toxicity in rodents, Feed, dose end: 28 day, group: systemic
# rat [14] = settings: Carcinogenicity, fischer, Oral, Feed, dose end: 104 week, group: systemic
# rat [15] = settings: Subchronic oral toxicity in rodents, fischer, Feed, dose end: 13 week, group: systemic
# mouse [16] = settings: Carcinogenicity; b6c3f1; Oral; Feed; dose end: 103 week; group: systemic; systemic / in life observation / body weight / body weight + systemic / pathology microscopic / kidney / mineralization + systemic / …
# mouse [17] = settings: Subchronic oral toxicity in rodents, b6c3f1, Feed, dose end: 13 week, group: systemic, systemic / pathology microscopic / kidney / mineralization + systemic / in life observation / body weight / body weight gain
# mouse [18] = settings: Subchronic oral toxicity in rodents, b6c3f1, Water, dose end: 14 week, group: systemic
# rat [19] = settings: Subchronic oral toxicity in rodents, fischer, Water, dose end: 14 week, group: systemic
# rat [20] = settings: Subchronic oral toxicity in rodents, fischer, Gavage/Intubation, dose end: 13 week, group: systemic, systemic / hematology / anemia / anemia - macrocytic + systemic / hematology / erythrocyte (rbc) count differential / erythrocyte (rbc) + …
# mouse [21] = settings: Subchronic oral toxicity in rodents, b6c3f1, Gavage/Intubation, dose end: 13 week, group: systemic, systemic / hematology / methemoglobin / methemoglobin + systemic / pathology microscopic / bone marrow / hemosiderosis + systemic / …
# [22] = group: developmental, systemic / in life observation / body weight / fetal weight
# [23] = group: maternal, systemic / in life observation / body weight / dam weight + systemic / in life observation / clinical signs / abnormal respiratory sounds + …
# [24] = group: maternal, systemic / in life observation / body weight / body weight gain + systemic / in life observation / clinical signs / fur (altered appearance…
# [25] = systemic / pathology microscopic / liver / fatty change
# [26] = systemic / pathology microscopic / pituitary gland / adenoma + systemic / pathology microscopic / adrenal gland / pheochromocytoma nos + …
# [27] = group: maternal, systemic / in life observation / body weight / body weight gain
# [28] = group: offspring, developmental / offspring survival late / viability index / viability index + systemic / in life observation / body weight / offspring (pup…
# [29] = group: offspring, systemic / in life observation / body weight / offspring (pup) weight
# [30] = group: parental, systemic / in life observation / body weight / body weight + systemic / in life observation / body weight / body weight gain
# [31] = group: parental, systemic / in life observation / body weight / body weight gain
# [32] = reproductive / offspring survival early / live fetuses / live fetuses
# [33] = systemic / pathology microscopic / liver / infiltration cellular
# [34] = systemic / in life observation / body weight / body weight + systemic / pathology microscopic / kidney / hyperplasia + systemic / pathology …
# [35] = systemic / pathology microscopic / kidney / hyperplasia + systemic / pathology microscopic / urinary bladder / hyperplasia + systemic / …
# [36] = systemic / pathology microscopic / kidney / mineralization
# [37] = systemic / organ weight / kidney / absolute + systemic / organ weight / kidney / relative to body weight + systemic / pathology microscopic…
# [38] = systemic / organ weight / liver / absolute + systemic / organ weight / liver / relative to body weight + systemic / pathology microscopic / …
# [39] = systemic / hematology / erythrocyte (rbc) count differential / erythrocyte (rbc) + systemic / hematology / hematocrit (hct) / hematocrit (…
# [40] = systemic / hematology / hematocrit (hct) / hematocrit (hct) + systemic / hematology / hemoglobin (hgb) / hemoglobin (hgb) + systemic / organ…
smiles,measurement,setting,value
CN(C)[C@@H]1C(=O)C(C(N)=O)=C(O)[C@@]2(O)C(=O)C3=C(O)c4c(O)cccc4[C@@](C)(O)[C@H]3[C@H](O)[C@@H]12.Cl [Oxytetracycline hydrochloride],LEL,dog,125 mg/kg/day
same,LOAEL,dog,125 mg/kg/day
same,NEL,dog,50 mg/kg/day
same,NOAEL,dog,50 mg/kg/day
same,LEL,mouse [1],3750 mg/kg/day
same,LOAEL,mouse [1],7500 mg/kg/day
same,NEL,mouse [1],1880 mg/kg/day
same,NOAEL,mouse [1],3750 mg/kg/day
same,LEL,mouse [2]; [22],1320 mg/kg/day
same,LOAEL,mouse [2]; [22],> 2100 mg/kg/day
same,NEL,mouse [2]; [22],< 1320 mg/kg/day
same,NOAEL,mouse [2]; [22],≥ 2100 mg/kg/day
same,LEL,"mouse [2]; group: maternal, systemic / in life observation / body weight / dam weight",1670 mg/kg/day
same,LOAEL,mouse [2]; [23],> 2100 mg/kg/day
same,NEL,mouse [2]; [23],1320 mg/kg/day
same,NOAEL,mouse [2]; [23],≥ 2100 mg/kg/day
same,LEL,rat [3]; [22],1200 mg/kg/day
same,LOAEL,rat [3]; [22],1200 mg/kg/day
same,NEL,rat [3]; [22],< 1200 mg/kg/day
same,NOAEL,rat [3]; [22],< 1200 mg/kg/day
same,LEL,rat [3]; [24],1200 mg/kg/day
same,LOAEL,rat [3]; [24],> 1500 mg/kg/day
same,NEL,rat [3]; [24],< 1200 mg/kg/day
same,NOAEL,rat [3]; [24],≥ 1500 mg/kg/day
same,LEL,rat [4],155 mg/kg/day
same,LOAEL,rat [4],> 2500 mg/kg/day
same,NEL,rat [4],< 155 mg/kg/day
same,NOAEL,rat [4],≥ 2500 mg/kg/day
same,LEL,rat [5],1250 mg/kg/day
same,LOAEL,rat [5],> 2500 mg/kg/day
same,NEL,rat [5],< 1250 mg/kg/day
same,NOAEL,rat [5],≥ 2500 mg/kg/day
same,LEL,mouse [6],1400 mg/kg/day
same,LOAEL,mouse [6],> 1400 mg/kg/day
same,NEL,mouse [6],650 mg/kg/day
same,NOAEL,mouse [6],≥ 1400 mg/kg/day
same,LEL,rat [7]; [25],1000 mg/kg/day
same,NEL,rat [7]; [25],< 1000 mg/kg/day
same,LOAEL,rat [7]; [26],> 2000 mg/kg/day
same,NOAEL,rat [7]; [26],≥ 2000 mg/kg/day
same,LEL,mouse [8],1370 mg/kg/day
same,LOAEL,mouse [8],> 1370 mg/kg/day
same,NEL,mouse [8],663 mg/kg/day
same,NOAEL,mouse [8],≥ 1370 mg/kg/day
COS(=O)(=O)OC [Dimethyl sulfate],LEL,rat [9],0.7 ppm
same,LOAEL,rat [9],> 1.5 ppm
same,NEL,rat [9],0.1 ppm
same,NOAEL,rat [9],≥ 1.5 ppm
Oc1cc(Cl)ccc1Oc1ccc(Cl)cc1Cl [Triclosan],LEL,rat [10],15 mg/kg/day
same,LOAEL,rat [10],15 mg/kg/day
same,NEL,rat [10],< 15 mg/kg/day
same,NOAEL,rat [10],< 15 mg/kg/day
same,LEL,rat [11]; [27],150 mg/kg/day
same,LOAEL,rat [11]; [27],> 150 mg/kg/day
same,NEL,rat [11]; [27],50 mg/kg/day
same,NOAEL,rat [11]; [27],≥ 150 mg/kg/day
same,LOAEL,rat [11]; [28],150 mg/kg/day
same,NOAEL,rat [11]; [28],50 mg/kg/day
same,LEL,rat [11]; [29],15 mg/kg/day
same,NEL,rat [11]; [29],< 15 mg/kg/day
same,LOAEL,rat [11]; [30],150 mg/kg/day
same,NOAEL,rat [11]; [30],50 mg/kg/day
same,LEL,rat [11]; [31],15 mg/kg/day
same,NEL,rat [11]; [31],< 15 mg/kg/day
same,LEL,rabbit; [32],15 mg/kg/day
same,NEL,rabbit; [32],< 15 mg/kg/day
same,LOAEL,rabbit; systemic / in life observation / body weight / body weight + systemic / in life observation / food consumption / food consumption,150 mg/kg/day
same,NOAEL,rabbit; systemic / in life observation / body weight / body weight + systemic / in life observation / food consumption / food consumption + …,50 mg/kg/day
same,LEL,mouse [12],25 mg/kg/day
same,LOAEL,mouse [12],25 mg/kg/day
same,NEL,mouse [12],< 25 mg/kg/day
same,NOAEL,mouse [12],< 25 mg/kg/day
same,LOAEL,mouse [13]; systemic / clinical chemistry / alkaline phosphatase (alp/alk) / alkaline phosphatase (alp/alk) + systemic / clinical chemistry / alanine …,136 mg/kg/day
same,LEL,mouse [13]; [33],6.48 mg/kg/day
same,NEL,mouse [13]; [33],< 6.48 mg/kg/day
same,NOAEL,mouse [13]; systemic / pathology microscopic / liver / infiltration cellular + systemic / clinical chemistry / alkaline phosphatase (alp/alk) / alkaline…,6.48 mg/kg/day
NCCCCCCCCCCC(=O)O [11-Aminoundecanoic acid],LOAEL,rat [14]; [34],750 mg/kg/day
same,NOAEL,rat [14]; [34],375 mg/kg/day
same,LEL,rat [14]; [35],375 mg/kg/day
same,NEL,rat [14]; [35],< 375 mg/kg/day
same,LOAEL,rat [15]; systemic / pathology microscopic / kidney / hyperplasia + systemic / in life observation / body weight / body weight gain,900 mg/kg/day
same,NOAEL,rat [15]; systemic / pathology microscopic / kidney / hyperplasia + systemic / pathology microscopic / kidney / mineralization,750 mg/kg/day
same,LEL,rat [15]; [36],450 mg/kg/day
same,NEL,rat [15]; [36],< 450 mg/kg/day
same,LEL,mouse [16],1120 mg/kg/day
same,LOAEL,mouse [16],1120 mg/kg/day
same,NEL,mouse [16],< 1120 mg/kg/day
same,NOAEL,mouse [16],< 1120 mg/kg/day
same,LEL,mouse [17],2250 mg/kg/day
same,LOAEL,mouse [17],2250 mg/kg/day
same,NEL,mouse [17],1800 mg/kg/day
same,NOAEL,mouse [17],1800 mg/kg/day
CC(O)CCl (stereo not drawn) [1-Chloro-2-propanol],LOAEL,mouse [18]; [37],340 mg/kg/day
same,NOAEL,mouse [18]; [37],170 mg/kg/day
same,LEL,mouse [18]; [38],7 mg/kg/day
same,NEL,mouse [18]; [38],< 7 mg/kg/day
same,LOAEL,rat [19]; [39],100 mg/kg/day
same,NOAEL,rat [19]; [39],35 mg/kg/day
same,LEL,rat [19]; [40],5 mg/kg/day
same,NEL,rat [19]; [40],< 5 mg/kg/day
Nc1cccc(Cl)c1 [3-Chloroaniline],LEL,rat [20],10 mg/kg/day
same,LOAEL,rat [20],20 mg/kg/day
same,NEL,rat [20],< 10 mg/kg/day
same,NOAEL,rat [20],10 mg/kg/day
same,LEL,mouse [21],10 mg/kg/day
same,LOAEL,mouse [21],40 mg/kg/day
same,NEL,mouse [21],< 10 mg/kg/day
same,NOAEL,mouse [21],20 mg/kg/day

# Reference: EPA's ToxRefDB 2
